This note sets out measurements from patent publication US5686486A, “4-hydroxy-benzopyran-2-ones and 4-hydroxy-cycloalkyl[b]pyran-2-ones useful to treat retroviral infections” (priority 1995, dated 1997).

pIC50: −log10 of the molar value. Where two headings read alike, the source gives them in different places.

The target of the assay is HIV-1 protease (Human immunodeficiency virus type 1 group M subtype B, UniProt P04585). As to the kind of experiment: biochemical. As to conditions: for inhibition at 1 µM: read-out: HIV-1 Protease % Inhib, dose 1.000 uM; for inhibition at 100 µM: read-out: HIV-1 Protease % Inhib, dose 100.000 uM; for inhibition at 0.123 µM: read-out: HIV-1 Protease % Inhib, dose 0.123 uM. The gist of the method:
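Biotinylated, FITC-labeled peptide substrate (20 μl of 0.2 μM) incubated with HIV-1 protease (10 μl of 0.1 μM) and compound in 0.1 M sodium acetate pH 5.5, 1.0 M NaCl, 0.05% NP-40, 1 h, room temperature, dark. Streptavidin beads then capture uncleaved substrate; filtered labeled product read by fluorescence, giving percent inhibition.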

Where [1] appears, read: dose 3.300 uM, read-out: HIV-1 Protease % Inhib.
Setting [2] is: dose 10.000 uM, read-out: HIV-1 Protease % Inhib.
[3] abbreviates: dose 30.000 uM, read-out: HIV-1 Protease % Inhib.
The mark [4] stands for this setting: read-out: HIV-1 Protease % Inhib, dose 10.000 uM.
Where [5] appears, read: read-out: HIV-1 Protease % Inhib, dose 0.370 uM.
Setting [6] is: read-out: HIV-1 Protease % Inhib, dose 1.100 uM.
[7] abbreviates: read-out: HIV-1 Protease % Inhib, dose 3.300 uM.
Setting [8] is: read-out: HIV-1 Protease % Inhib, dose 30.000 uM.
The mark [9] stands for this setting: dose 1.100 uM, read-out: HIV-1 Protease % Inhib.
Setting [10] is: dose 0.370 uM, read-out: HIV-1 Protease % Inhib.
Setting [11] is: read-out: HIV-1 Protease % Inhib.

For `O=c1oc2c(c(O)c1C(Cc1ccccc1)Cc1ccccc1)CCCCC2` [Example 482, 3-(1,3-Diphenyl-2-propyl)-5,6,7,8,9-pentahydro-4-hydroxy-2H-cyclohepta[b]pyran-2-one], under setting [1], the inhibition at 3.3 µM amounted to 20%. The inhibition at 10 µM under setting [2] stood at 63.2%. Also, the inhibition at 30 µM under setting [3] amounted to 92.6%.

On to `CCC(c1cccc(NC(=O)C(C)NC(=O)OC(C)(C)C)c1)c1c(O)c2ccccc2oc1=O` (centres unmarked) [Example 60, Carbamic acid, [2-[[3-[1-(4-hydroxy-2-oxo-2H-1-benzopyran-3-yl)propyl]phenyl]amino]-1-methyl-2-oxoethyl]-, 1,1-dimethylethyl ester], for which the inhibition at 1 µM is 31.5% and the inhibition at 100 µM came to 117%. For the setting “HIV-1 Protease IC50”, the pIC50 was 5.96. Also, the inhibition at 10 µM under setting [4] was 90.8%.

With `CC(C)C(c1cccc(NC(=O)OCc2ccccc2)c1)c1c(O)c2c(oc1=O)CCCCCC2` (centres unmarked) [Example 370, [3-[1-(5,6,7,8,9,10-Hexahydro-4-hydroxy-2-oxo-2H-cycloocta[b]pyran-3-yl)-2-methylpropyl]phenyl]-carbamic acid, phenylmethyl ester], the inhibition at 10 µM under setting [2] came to 19.4%. In addition, under setting [3], the inhibition at 30 µM came out at 33.1%.

In the case of `O=c1oc2c(c(O)c1C(c1cccc(NS(=O)(=O)c3ccc(Cl)cc3)c1)C1CC1)CCCCCC2` (centres unmarked) [Example 264, 4-Chloro-N-[3-[cyclopropyl(5,6,7,8,9,10-hexahydro4-hydroxy-oxo-2H-cycloocta[b]pyran-3-yl)methyl]phenyl]-benzenesulfonamide], the inhibition at 0.123 µM was found to be 78.5%. Besides, the inhibition at 0.37 µM under setting [5] is 89%. Moreover, the inhibition at 1.1 µM under setting [6] was 99.8%. Also, the inhibition at 3.3 µM under setting [7] turned out to be 104%. In addition, the inhibition at 10 µM under setting [4] was determined as 108%. Besides, under setting [8], the inhibition at 30 µM was found to be 109%.

In the case of `CCC(c1cccc(N)c1)c1c(O)c2c(oc1=O)CCCCCC2` (centres unmarked) [Example 218, 2H-Cycloocta[b]pyran-2-one, 3-[1-(3-aminophenyl)propyl]-5,6,7,8,9,10-hexahydro-4-hydroxy-], under setting [9], the inhibition at 1.1 µM is 26.2%. For the same compound, the inhibition at 3.3 µM under setting [1] came out at 65.2%. Also, the inhibition at 10 µM under setting [2] worked out at 88%. In addition, the inhibition at 30 µM under setting [3] was 91.4%.

Regarding `CCC(c1cccc(OCC(O)CO)c1)c1c(O)c2ccccc2oc1=O` (centres unmarked) [Example 68, 3-(1'-(3-((2,3-Dihydroxy)propyloxy)phenyl)propyl)-4-hydroxycoumarin], the inhibition at 1 µM is less than 10% and the inhibition at 100 µM was 56%. Besides, the inhibition at 10 µM under setting [4] was less than 10%.

For `CCC(c1cccc(NC(=O)OCc2ccccc2)c1)c1c(O)c2c(oc1=O)CCCCCC2` (centres unmarked) [Example 217, Carbamic Acid, [3-[1-(5,6,7,8,9,10-hexahydro-4-hydroxy-2-oxo-2H-cycloocta[b]pyran-3-yl)propyl]phenyl]-, phenyl methyl ester], the inhibition at 3.3 µM under setting [1] came out at 31.6%. For the same compound, the inhibition at 10 µM under setting [2] came to 64.2%. Moreover, the inhibition at 30 µM under setting [3] was 72.9%.

`O=c1oc2c(c(O)c1C(c1cccc(NS(=O)(=O)c3ccc([N+](=O)[O-])cc3)c1)C1CC1)CCCCCC2` (centres unmarked) [Example 273, N-[3-[Cyclopropyl(5,6,7,8,9,10-hexahydro-4-hydroxy-4-oxo-2H-cycloocta[b]pyran-3-yl)methyl]phenyl]4-nitro-benzenesulfonamide]: the inhibition at 0.123 µM was 68.4%. The inhibition at 0.37 µM under setting [5] stood at 92.3%. Further, the inhibition at 1.1 µM under setting [6] is 95.9%. Besides, the inhibition at 3.3 µM under setting [7] is 98.2%. Besides, the inhibition at 10 µM under setting [4] stood at 102%. Further, the inhibition at 30 µM under setting [8] was determined as 108%.

Consider `O=c1oc2c(c(O)c1C(c1cccc(NS(=O)(=O)c3cccc(Cl)c3)c1)C1CC1)CCCCCC2` (centres unmarked) [Example 289], for which the inhibition at 0.123 µM was 63.7%. Further, under setting [5], the inhibition at 0.37 µM is 80%. Besides, the inhibition at 1.1 µM under setting [6] turned out to be 91.1%. Also, under setting [7], the inhibition at 3.3 µM is 97.3%. Besides, under setting [4], the inhibition at 10 µM was determined as 95.3%. For the same compound, the inhibition at 30 µM under setting [8] came out at 101%.

As for `O=c1oc2c(c(O)c1C(c1cccc(N(CCc3ccccc3)S(=O)(=O)c3ccccc3)c1)C1CC1)CCCCCC2` (centres unmarked) [Example 246, N-[3-[cyclopropyl(5,6,7,8,9,10-hexahydro-4-hydroxy-2-oxo-2H-cycloocta[b]pyran-3-yl)methyl]phenyl]-N-(2-phenylethyl)-benzenesulfonamide], the inhibition at 10 µM under setting [2] stood at 26.6%. Under setting [3], the inhibition at 30 µM amounted to 49.7%.

As for `CCC(Cc1ccccc1)c1c(O)c2ccccc2oc1=O` (centres unmarked) [Example 144, 3-(1-Benzyl-propyl)4-hydroxy-chromen-2-one], the inhibition at 1 µM was 25.9% and the inhibition at 100 µM worked out at 86%. The inhibition at 10 µM under setting [4] came out at 77%.

In the case of `O=c1oc2c(c(O)c1C(c1cccc(NCc3ccccc3)c1)C1CC1)CCCCCC2` (centres unmarked) [Example 242, 3-[Cyclopropyl-[3-[(phenylmethyl)amino]phenyl]methyl]-5,6,7,8,9,10-hexahydro-4-hydroxy-2H-cycloocta[b]pyran-2-one], the inhibition at 1.1 µM under setting [9] was 13.8%. For the same compound, the inhibition at 3.3 µM under setting [1] turned out to be 36%. Besides, under setting [2], the inhibition at 10 µM worked out at 65.3%. Moreover, the inhibition at 30 µM under setting [3] came to 78.9%.

For `CCC(Cc1c(O)c2ccccc2oc1=O)c1ccccc1` (centres unmarked) [Example 84, Coumarin, 4-hydroxy-3-(2-phenylbutyl)-], the inhibition at 1 µM is less than 10%. Moreover, the inhibition at 10 µM under setting [4] is 30.2%.

For the compound `CN(C)c1cccc2c(S(=O)(=O)Nc3cccc(C(c4c(O)c5c(oc4=O)CCCCCC5)C4CC4)c3)cccc12` (centres unmarked) [Example 283, N-[3-[Cyclopropyl(5,6,7,8,9,10-hexahydro4-hydroxy-2-oxo-2H-cycloocta[b]pyran-3-yl)methyl]phenyl]-5-(dimethylamino)-1-naphthalenesulfonamide], under setting [10], the inhibition at 0.37 µM is 10.6%. The inhibition at 1.1 µM under setting [9] was determined as 42.3%. The inhibition at 3.3 µM under setting [1] amounted to 64.2%. Under setting [2], the inhibition at 10 µM came to 85.1%. Further, the inhibition at 30 µM under setting [3] worked out at 80.2%.

Consider `Cc1cccc(C)c1S(=O)(=O)Nc1cccc(C(c2c(O)c3c(oc2=O)CCCCCC3)C2CC2)c1` (centres unmarked) [Example 329, N-[3-[Cyclopropyl(5,6,7,8,9,10-hexahydro-4-hydroxy-2-oxo-2H-cycloocta[b]pyran-3-yl)methyl]phenyl]-2,6-dimethyl-benzenesulfonamide], for which, under setting [11], the inhibition at 0.37 µM was 10.2%, the inhibition at 1.1 µM is 42.2%, the inhibition at 3.3 µM was found to be 75.3% and the inhibition at 10 µM was 91.8%. Further, under setting [11], the inhibition at 30 µM is 102%.

For `O=c1oc2c(c(O)c1C(c1cccc(NS(=O)(=O)c3cccc(Cl)c3Cl)c1)C1CC1)CCCCCC2` (centres unmarked) [Example 285, 2,3-Dichloro-N-[3-[cyclopropyl(5,6,7,8,9,10-hexahydro4-hydroxy-2-oxo-2H-cycloocta[b]pyran-3-yl)methyl]phenyl]-benzenesulfonamide], the inhibition at 0.123 µM came to 37.6%. For the same compound, the inhibition at 0.37 µM under setting [5] is 73.8%. Besides, the inhibition at 1.1 µM under setting [6] came to 84.6%. For the same compound, the inhibition at 3.3 µM under setting [7] worked out at 95%. Besides, under setting [4], the inhibition at 10 µM stood at 97.7%. Also, under setting [8], the inhibition at 30 µM was 91.8%.

In the case of `CCC(c1cccc(Br)c1)c1c(O)c2ccccc2oc1=O` (centres unmarked) [Example 71, 3-(1'-(3-Bromophenyl)propyl)-4-hydroxycoumarin], the inhibition at 1 µM was less than 10% and the inhibition at 100 µM worked out at 80%. Moreover, under setting [4], the inhibition at 10 µM stood at 15%.

On to `O=c1oc2ccccc2c(O)c1C(Cc1ccccc1)c1ccccc1` (centres unmarked) [Example 13, 3-(1,2-Diphenylethyl)4-hydroxycoumarin], for which the inhibition at 1 µM was less than 10% and the inhibition at 100 µM came out at 74.6%. Moreover, under setting [4], the inhibition at 10 µM was 34.7%.

Regarding `O=c1oc2ccccc2c(O)c1CCc1ccccc1` [Example 1, 4-Hydroxy-3-phenethylcoumarin], the inhibition at 100 µM came out at 66.9%. Under setting [4], the inhibition at 10 µM came out at 15.3%. In addition, the inhibition at 20 µM (read-out: HIV-1 Protease % Inhib, dose 20.000 uM) came to 51.6%. For the setting “read-out: HIV-1 Protease % Inhib, dose 200.000 uM”, the inhibition at 200 µM is 92.8%.

For `O=C(Nc1ccc(C(c2c(O)c3c(oc2=O)CCCCCC3)C2CC2)cc1)OCc1ccccc1` (centres unmarked) [Example 470, Carbamic acid, [4-[cyclopropyl (5,6,7,8,9,10-hexahydro-4-hydroxy-2-oxo-2H-cycloocta[b]pyran-3-yl)methyl]phenyl]-phenylmethyl ester], the inhibition at 1.1 µM under setting [9] was found to be 16.1%. Under setting [1], the inhibition at 3.3 µM came out at 59.2%. For the same compound, the inhibition at 10 µM under setting [2] is 102%. For the same compound, under setting [3], the inhibition at 30 µM stood at 118%.

`CCC(c1cccc(NC(=O)Cc2ccccc2)c1)c1c(O)c2ccccc2oc1=O` (centres unmarked) [Example 55, Coumarin, 4-hydroxy-3-[1-[3-[[(phenylmethyl)carbonyl]amino]phenyl]propyl]-]: the inhibition at 1 µM was less than 10% and the inhibition at 100 µM came to 72%. Under setting [4], the inhibition at 10 µM was less than 10%.

Take `O=c1oc2c(c(O)c1C(c1ccccc1)C1CC1)CCCCC2CC1CCOC1` (centres unmarked) [Example 191, 3-(Cyclopropylphenylmethyl)-6,7,8,9-tetrahydro-4-hydroxy-9-[(tetrahydro-3-furanyl)methyl]-cyclohepta[b]pyran-2(5H)-one]: the inhibition at 0.37 µM under setting [10] came out at 16.9%. Further, the inhibition at 1.1 µM under setting [9] was determined as 55%. Further, the inhibition at 3.3 µM under setting [1] came out at 93.3%. Moreover, the inhibition at 10 µM under setting [2] amounted to 101%. Moreover, the inhibition at 30 µM under setting [3] was 100%.
